Source: patent US8586638B2, “Parakeratosis inhibitor and skin preparation for external use” (priority 2003, dated 2013)
Where a SMILES comes first, the peptide text is derived from it. [ ]: non-standard residue; d: D form. Sar = CNCC(=O)O

Tests used:
[1] = tested on: pores on the cheek of healthy male subjects; assay: Effect of shrinking human pores: replica evaluation of cheek pores; type: in vivo; conditions: for Replica Evaluation (mean of n = 5), difference of pore size score before/after application: twice a day for a month, cheek; for pore-shrinking effect (conclusion from Table 2): second embodiment
Experimental: An experiment of application of sample twice a day for a month on the cheek of healthy male subjects, was conducted with each group consisting of 5 individuals. 3 weight % solution of the glycine derivatives in accordance with the invention 1 (including 15 weight % of ethanol) was prepared. pH was regulated to the range between 7.0 and 7.5, by using hydrochloric acid and/or sodium hydroxide. Control was 15 weight % ethanol solution. Said 3 weight % solution was applied to one side and said control solution was applied to the other side.
Replicas were prepared prior to and after the application to observe the change of form of pores in the same spot under a three-dimensional laser scanning microscope. The size of pores was evaluated visually 13 steps from 1 to 13 (larger number indicates larger pore size), and the difference between the resulted evaluations before/after the application experiment was then calculated to study the effectiveness of each specimen.
An experiment of application of sample twice a day for a month on the cheek of healthy male subjects, was conducted with each group consisting of 5 individuals. 3 weight % solution of the glycine derivatives and the salts thereof as well as the aminosulfuric acid derivatives and the salts thereof in accordance with the invention 2 (including 15 weight % of ethanol), 2 weight % solution of ACES (including 15 weight % of ethanol), 3 weight % solution of CAPS (including 15 weight % of ethanol), and 3 weight % solution of CAPSO (including 15 weight % of ethanol) were prepared. pH was regulated to the range between 7.0 and 7.5, by using hydrochloric acid and/or sodium hydroxide. 15 weight % ethanol solution was used as control. Said sample solutions was applied to one side, and said control solution was applied to the other side.

[2] = tested on: parakeratosis and skin roughness caused by oleic acid on the back of hairless mice; assay: Parakeratosis inhibition effect test: oleic acid applied to the back of hairless mice, visual skin roughness and parakeratosis level; type: in vivo, hairless mice (HR-1); design: key to Evaluation Visual (mean of 4 mice), skin roughness: 0.0 = no roughness, 2.0 = control application; 0.25 steps; conditions: for effect of inhibiting parakeratosis (conclusion from Table 1) / effect of inhibiting parakeratosis (conclusion from Table 4): hairless mice, oleic acid; for effect of inhibiting parakeratosis (conclusion from Table 1): first embodiment; for Evaluation Parakeratosis (mean of 4 mice): control 2.0; for Evaluation Visual (mean of 4 mice), skin roughness: score 0.0 no roughness, 2.0 control; for effect of inhibiting parakeratosis (conclusion from Table 4): fourth embodiment
Experimental: A 3 weight % water solution (including 30 weight % ethanol) was prepared as the evaluation specimen of the glycine derivatives in accordance with the invention 1. The pH was regulated to the range between 7.0 to 7.5, by using hydrochloric acid and sodium hydroxide. When the solubility was low, the solution was adjusted accordingly.
100 microliters of 10 weight % oleic acid (solvent: ethanol) was applied to the back of hairless mice (HR-1, Hoshino laboratory animals). Thereafter, 100 microliters of sample solution was applied (glycine derivatives in accordance with said invention 1) at each time. This procedure was repeated for 3 days. The day after the application, the skin condition of the backs was observed by using a CCD camera to evaluate the skin roughness (stratified ablation of the skin surface stratum corneum and red spots). The skin condition was evaluated visually, with scoring the skin condition of control application to 2.0 and the skin condition of no roughness to 0.0, in a 0.25 point step in response to the skin condition. At the same time, the skin surface stratum corneum of the back of hairless mice was peeled off by using a tape for staining the nucleus with haematoxylin to observe the degrees of parakeratosis (parakeratosis level) and evaluate in 0.25 step in the range from 1.0 to 3.0. The higher evaluation points indicates the larger number of parakeratotic corneocytes count, i.e., severer parakeratosis.
The samples to be evaluated of the glycine derivatives and the salts thereof as well as the aminosulfuric acid derivatives and the salts thereof in accordance with the invention 2 were prepared mainly 3 weight % solution (including 30 weight % ethanol, excluding Hydantoic acid and ACES which include 20 weight % ethanol). pH was regulated by using hydrochloric acid or sodium hydroxide to be 7.0 to 7.5. When the solubility was low, then the solution was prepared accordingly.
100 microliters of 10 weight % oleic acid (solvent: ethanol) was applied to the back of Hairless mice (HR-1, Hoshino laboratory animals) Thereafter, 100 microliters of sample solution (glycine derivatives in accordance with the invention 2) was applied thereon at each time. This procedure was repeated for 3 days. The day after the application, the skin condition of the backs was observed by using a CCD camera to evaluate the skin roughness (stratified ablation of the skin surface stratum corneum and red spots). The skin condition was evaluated visually, with scoring the skin condition of control application to 2.0 and the skin condition of no roughness to 0.0, in a 0.25 point step in response to the skin condition. At the same time, the skin surface stratum corneum of the back of hairless mice was peeled off by using a tape for staining the nucleus with haematoxylin to observe the degrees of parakeratosis and evaluate in 0.25 step in the range from 1.0 to 3.0. The higher evaluation points indicates the larger number of parakeratotic corneocytes count, i.e., severer parakeratosis.

[3] = tested on: skin roughness caused by oleic acid on the back of hairless mice; assay: Inhibitory effect on skin roughness by the application of oleic acid (TEWL value); type: in vivo, hairless mice (HR-1); design: ΔTEWL: unit not given here; conditions: for ΔTEWL: after 10 weight % oleic acid, 3 days, four mice per group, control 12.0
Experimental: To study the inhibitory effect on the skin roughness by the application of oleic acid by the glycine derivatives and the salts thereof as well as the aminosulfuric acid derivatives and the salts thereof in accordance with the invention 2, the […] (TEWL value) before and after the application was measured to compare the difference therebetween with the value of control (control solution) in order to determine the effect. The preparation of samples and the application procedure were in accordance with the embodiment 4. The TEWL value was measured by means of TEWA meter TM210 (Courage+Khazaka Inc.).
100 microliters of 10 weight % oleic acid (solvent: ethanol) was applied to the back of hairless mice (HR-1, four in each group). Thereafter, 100 microliters of sample solutions (glycine derivatives and the salts thereof as well as the aminosulfuric acid derivatives and the salts thereof) in accordance with the invention 2 were applied at each time. This procedure was repeated for 3 days. The day after the application, TEWL value of the back of mice was measured and the values were averaged. The larger delta-TEWL value indicates severer aggravation of skin roughness.

[4] = 3 weight % solution (15 weight % ethanol), 13 steps, larger = larger pore, control 0.2
[5] = sample 3 weight % in aqueous 30 weight % ethanol, after 10 weight % oleic acid, 3 days, range 1.0 to 3.0, higher = severer
[6] = sample 3 weight % in aqueous 30 weight % ethanol, after 10 weight % oleic acid, 3 days
[7] = Table 4, sample 3 weight % in aqueous 30 weight % ethanol (hydantoic acid: 20 weight % ethanol), range 1.0 to 3.0, higher = severer
[8] = Table 4, sample 3 weight % in aqueous 30 weight % ethanol (hydantoic acid: 20 weight % ethanol)
[9] = sample 3 weight %, larger = severer roughness
[10] = Table 4, sample 1 weight % in aqueous 30 weight % ethanol (ACES: 20 weight % ethanol), range 1.0 to 3.0
[11] = Table 4, sample 1 weight % in aqueous 30 weight % ethanol (ACES: 20 weight % ethanol)

CC(=O)N[C@@H](CCC(=O)O)C(=O)O [N-acetyl-L-glutamic acid]
Replica Evaluation (mean of n = 5), difference of pore size score before/after application [1, 4]: −0.8 | pore-shrinking effect (conclusion from Table 2) ([1]; human cheek): pore-shrinking effect was observed | effect of inhibiting parakeratosis (conclusion from Table 1) [2]: have the effect of inhibiting parakeratosis | Evaluation Parakeratosis (mean of 4 mice) [2, 5]: 1.2 | Evaluation Visual (mean of 4 mice), skin roughness [2, 6]: 1.2

O=C(O)CNC(=O)Cc1ccccc1 [phenaceturic acid]
Replica Evaluation (mean of n = 5), difference of pore size score before/after application [1, 4]: −0.8 | pore-shrinking effect (conclusion from Table 2) ([1]; human cheek): pore-shrinking effect was observed | effect of inhibiting parakeratosis (conclusion from Table 1) [2]: have the effect of inhibiting parakeratosis | Evaluation Parakeratosis (mean of 4 mice) [2, 5]: 1.1 | Evaluation Visual (mean of 4 mice), skin roughness [2, 6]: 1.2

CNCC(=O)O [sarcosine, N-methylglycine]
Replica Evaluation (mean of n = 5), difference of pore size score before/after application [1, 4]: −1.3 | pore-shrinking effect (conclusion from Table 2) ([1]; human cheek): pore-shrinking effect was observed | effect of inhibiting parakeratosis (conclusion from Table 1) [2]: have the effect of inhibiting parakeratosis | Evaluation Parakeratosis (mean of 4 mice) [2, 5]: 1.2 | Evaluation Visual (mean of 4 mice), skin roughness [2, 6]: 1.3

CN(CC(=O)O)C(=O)CN [glycyl-sarcosine, glycyl sarcosine] (H-Gly-[Sar]-OH)
Replica Evaluation (mean of n = 5), difference of pore size score before/after application ([1]; Table 5, 3.0 weight % solution (15 weight % ethanol), control 0.3): −0.8 | effect of pore-shrinking (conclusion from Table 5) ([1]; human cheek, fifth embodiment): demonstrated the effect of pore-shrinking | Evaluation Parakeratosis (mean of 4 mice) [2, 7]: 1.4 | Evaluation Visual (mean of 4 mice), skin roughness [2, 8]: 1.5 | effect of inhibiting parakeratosis (conclusion from Table 4) [2]: have the effect of inhibiting parakeratosis

CCOC(=O)CNC(=O)CN.Cl [glycylglycine ethyl ester HCL, glycylglycine ethyl ester hydrochloride salt]
decrease of delta-TEWL value as compared to the control solution (conclusion from Table 6) ([3]; hairless mice, oleic acid, seventh embodiment): significant decrease of delta-TEWL value | ΔTEWL [3, 9]: 6.7 | Evaluation Parakeratosis (mean of 4 mice) [2, 7]: 1.1 | Evaluation Visual (mean of 4 mice), skin roughness [2, 8]: 1.3 | effect of inhibiting parakeratosis (conclusion from Table 4) [2]: have the effect of inhibiting parakeratosis

O=C(O)CNCP(=O)(O)O [phosphomethylglycine, phosphonomethylglycine, reference compound]
ΔTEWL ([3]; sample 1 weight %): 11.4 | Evaluation Parakeratosis (mean of 4 mice) [2, 10]: 2.1 | Evaluation Visual (mean of 4 mice), skin roughness [2, 11]: 1.9

O=C1CNC(=O)N1 [hydantoin, reference compound]
ΔTEWL ([3]; sample 1 weight %): 17.6 | Evaluation Parakeratosis (mean of 4 mice) [2, 10]: 2.0 | Evaluation Visual (mean of 4 mice), skin roughness [2, 11]: 2.1 | effect of inhibiting parakeratosis (conclusion from Table 4) [2]: did not exhibit such effect

O=C(O)CN(CCO)CCO [bicine, reference compound]
ΔTEWL [3, 9]: 12.0 | Evaluation Parakeratosis (mean of 4 mice) [2, 7]: 2.0 | Evaluation Visual (mean of 4 mice), skin roughness [2, 8]: 1.9

C[N+](C)(C)CC(=O)O [betaine, reference compound]
ΔTEWL [3, 9]: 10.6 | Evaluation Parakeratosis (mean of 4 mice) [2, 7]: 1.8 | Evaluation Visual (mean of 4 mice), skin roughness [2, 8]: 1.8

NCCC(=O)O [beta-alanine]
Replica Evaluation (mean of n = 5), difference of pore size score before/after application [1, 4]: −0.9 | pore-shrinking effect (conclusion from Table 2) ([1]; human cheek): pore-shrinking effect was observed | effect of inhibiting parakeratosis (conclusion from Table 1) [2]: have the effect of inhibiting parakeratosis | Evaluation Parakeratosis (mean of 4 mice) [2, 5]: 1.5 | Evaluation Visual (mean of 4 mice), skin roughness [2, 6]: 1.6

CC(C(=O)O)N1CCOCC1 (stereo not drawn) [methylmorpholino acetate, methylmorpholino acetic acid, reference compound]
ΔTEWL [3, 9]: 10.8 | Evaluation Parakeratosis (mean of 4 mice) [2, 7]: 2.0 | Evaluation Visual (mean of 4 mice), skin roughness [2, 8]: 1.9

O=C(O)CNC(=O)c1ccccc1 [hippuric acid, reference compound]
ΔTEWL ([3]; sample 1 weight %): 10.5 | Evaluation Parakeratosis (mean of 4 mice) [2, 10]: 1.9 | Evaluation Visual (mean of 4 mice), skin roughness [2, 11]: 1.8

CCOC(=O)CN1CCCCC1 [ethyl-1-piperidine acetate, reference compound]
ΔTEWL [3, 9]: 10.7 | Evaluation Parakeratosis (mean of 4 mice) [2, 7]: 1.9 | Evaluation Visual (mean of 4 mice), skin roughness [2, 8]: 1.8

O=S(=O)(O)CCCNC(CO)(CO)CO [TAPS, N-tris(hydroxymethyl)methyl-3-aminopropane sulfonic acid, reference compound]
ΔTEWL [3, 9]: 12.0 | Evaluation Parakeratosis (mean of 4 mice) [2, 7]: 2.1 | Evaluation Visual (mean of 4 mice), skin roughness [2, 8]: 2.0 | effect of inhibiting parakeratosis (conclusion from Table 4) [2]: effect was not recognized

O=S(=O)(O)CCNC1CCCCC1 [CHES, 2-(N-cyclohexylamino)ethane sulfonic acid, reference compound]
ΔTEWL [3, 9]: 12.3 | Evaluation Parakeratosis (mean of 4 mice) [2, 7]: 1.9 | Evaluation Visual (mean of 4 mice), skin roughness [2, 8]: 1.8 | effect of inhibiting parakeratosis (conclusion from Table 4) [2]: effect was not recognized
